Consider 20 compounds from patent US11453690B2, “Receptor inhibitor, pharmaceutical composition comprising same, and use thereof” (BEIJING TIDE PHARMACEUTICAL CO., LTD., priority 2018, dated 2022).

In this assay the target is AT2 Receptor (AT2R) (Homo sapiens (Human), UniProt P50052). Nature of the assay: Measurement of inhibitory activity on AT2 receptor (Tag-lite HTRF, Tb-labeled AT2R cells, angiotensin receptor red agonist). Format: binding. Particulars: 1 h room temperature. How it is done:
Measurement of Inhibitory Activity on AT1 Receptor ([…])/AT2 Receptor (AT2R)
Through the following steps, the inhibitory activity of the compound on AT1R/AT2R (IC50 value) was determined:
1) An appropriate amount of 1×TLB (Tag-lite Buffer) was prepared and well mixed for use.
2) The compound was diluted by 10 times with ddH2O or DMSO. The compound was then dilute to 4 times of the working concentration with 1×TLB and mixed well for use.
3) 8600 nM Tag-lite angiotensin receptor red agonist was diluted to 12 nM (4×Kd) with 1×TLB.
4) 5 ml 1×TLB was taken into a 15 ml centrifuge tube.
5) After thawing 1 tube of Tb-labeled AT1R/AT2R cells in a 37° C. water bath, the cells were quickly transferred to the 1×TLB in step 4), mixed gently, and centrifuged at 1200 g for 5 minutes at room temperature.
6) The supernatant was aspirated gently, and the cells were resuspended and mixed in 2.7 ml 1×TLB, and then placed at room temperature until use.
7) 10 μl cells were added to all test wells, and 5 μl 4× working solution of the compound from step 2) was added to the corresponding test wells. 5 μl 4× Tag-lite angiotensin receptor red agonist well diluted in step 3) was added to all test wells.
8) After leaving the reaction plate at room temperature for 1 h, data were measured and analyzed using Envision HTRF Reader, and the half inhibitory concentration (IC50) of the compound on AT1R/AT2R was calculated with the GraphPad Prism four-parameter equation.
In general terms: Time-resolved FRET reads energy transfer from a long-lived donor to a nearby acceptor.

Chain of AT2 Receptor (AT2R) (P50052 whole entry): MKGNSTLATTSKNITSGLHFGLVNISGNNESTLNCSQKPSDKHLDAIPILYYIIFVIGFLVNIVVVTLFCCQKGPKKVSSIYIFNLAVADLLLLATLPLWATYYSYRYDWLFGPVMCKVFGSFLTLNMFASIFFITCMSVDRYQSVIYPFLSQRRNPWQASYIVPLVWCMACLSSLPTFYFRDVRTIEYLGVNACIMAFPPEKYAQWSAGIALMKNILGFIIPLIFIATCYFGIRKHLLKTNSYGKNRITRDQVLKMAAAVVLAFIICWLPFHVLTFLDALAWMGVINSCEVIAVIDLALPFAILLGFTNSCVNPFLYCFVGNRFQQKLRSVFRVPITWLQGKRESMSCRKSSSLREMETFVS

`O=C(O)[C@@H]1[C@H]2CC[C@@H](CN1C(=O)N(c1ccccc1)c1ccccc1)N2C(=O)/C=C/c1ccccc1` [Compound C174, (1R,2S,5S)-8-cinnamoyl-3-(diphenylcarbamoyl)-3,8-diazabicyclo [3.2.1]octane-2-carboxylic acid]: the half-inhibitory concentration (IC50) (as a rule, the midpoint of a concentration-inhibition curve) came out at 226 nM.

Compound `CCN(Cc1cccs1)C(=O)N1[C@H]2CC[C@@H]1[C@@H](C(=O)O)N(C(=O)N(c1ccccc1)c1ccccc1)C2` [Compound C201, (1R,2S,5S)-3-(diphenylcarbamoyl)-8-(ethyl(thiophene-2-ylmethyl)carbamoyl)-3,8-diazabicyclo [3.2.1]octane-2-carboxylic acid] gave an IC50 of 18.4 nM.

The compound `CCN(Cc1ccccc1F)C(=O)N1[C@H]2CC[C@@H]1[C@@H](C(=O)O)N(C(=O)N(c1ccccc1)c1ccccc1)C2` [Compound C156, (1R,2S,5S)-3-(diphenylcarbamoyl)-8-(ethyl(2-fluorobenzyl)carbamoyl)-3,8-diazabicyclo [3.2.1]octane-2-carboxylic acid] displayed an IC50 of 10.1 nM.

Consider `O=C(O)[C@@H]1[C@H]2CC[C@@H](CN1C(=O)N(c1ccccc1)c1ccccc1)N2C(=O)N1CCCC1c1ccc(Cl)cc1` (stereo in doubt) [Compound C144, (1R,2S,5S)-8-((R)-2-(4-chlorphenyl)pyrrolidine-1-carbonyl)-3-(diphenylcarbamoyl)-3,8-diazabicyclo [3.2.1]octane-2-carboxylic acid], for which the IC50 is 21.6 nM.

`CCN(Cc1ccc(Cl)s1)C(=O)N1[C@H]2CC[C@@H]1[C@@H](C(=O)O)N(C(=O)N(c1ccccc1)c1ccccc1)C2` [Compound C281, (1R,2S,5S)-8-(((5-chlorothiophene-2-yl)methyl) (ethyl)carbamoyl)-3-(diphenylcarbamoyl)-3,8-diazabicyclo[3.2.1] octane-2-carboxylic acid]: the IC50 was 20.3 nM.

Turning to `CN(Cc1ccc2ccccc2n1)C(=O)N1[C@H]2CC[C@@H]1[C@@H](C(=O)O)N(C(=O)N(c1ccccc1)c1ccccc1)C2` [Compound C265, (1R,2S,5S)-3-(diphenylcarbamoyl)-8-(methyl (quinoline-2-ylmethyl)carbamoyl)-3,8-diazabicyclo [3.2.1]octane-2-carboxylic acid], the half-inhibitory concentration (IC50) was determined as 27.2 nM.

In turn, `O=C(O)[C@@H]1[C@H]2CC[C@@H](CN1C(=O)N(c1ccccc1)c1ccccc1)N2S(=O)(=O)c1ccccc1` [Compound C182, (1R,2S,5S)-3-(diphenylcarbamoyl)-8-(phenylsulfulyl)-3,8-diazabicyclo [3.2.l]octane-2-carboxylic acid] had an IC50 of 432 nM. Against the preceding compound, the IC50 is about 16-fold higher.

Consider `CCN(Cc1ccccc1Cl)C(=O)N1[C@H]2CC[C@@H]1[C@@H](C(=O)O)N(C(=O)N(c1ccccc1)c1ccccc1)C2` [Compound C212, (1R,2S,SS)-8-((2-chlorobenzyl) (ethyl)carbamoyl)-3-(diphenylcarbamoyl)-3,8-diazabicyclo [3.2.1]octane-2-carboxylic acid], for which the IC50 came to 9.04 nM.

In the case of `O=C(O)[C@@H]1[C@H]2CC[C@@H](CN1C(=O)N(c1ccccc1)c1ccccc1)N2C(=O)N1CCCC1c1ccccc1` (stereo partly drawn) [Compound C138, (1R,2S,5S)-3-(diphenylcarbamoyl)-8-(2-phenylpyrrolidine-1-carbonyl)-3,8-diazabicyclo[3.2.1] octane-2-carboxylic acid], the IC50 was determined as 11.7 nM.

The compound `O=C(O)[C@@H]1[C@H]2CC[C@@H](CN1C(=O)C(c1ccccc1)c1ccccc1)N2C(=O)C(c1ccccc1)c1ccccc1` [Compound C3, (1R,2S,5S)-3,8-bis (2,2-diphenylacetyl)-3,8-diazabicyclo [3.2.1]octane-2-carboxylic acid] had an IC50 of 13.9 nM.

Compound `O=C(O)[C@@H]1[C@H]2CC[C@@H](CN1C(=O)N(c1ccccc1)c1ccccc1)N2C(=O)N1CCC[C@H]1c1cc(F)ccc1F` [Compound C142, (1R,2S,5S)-8-((S)-2-(2,5-difluorophenyl)pyrrolidine-1-carbonyl)-3-(diphenylcarbamoyl)-3,8-diazabicyclo [3.2.1]octane-2-carboxylic acid] displayed a half-maximal inhibitory concentration (IC50) of 654 nM.

Turning to `CN(Cc1ccccc1)C(=O)N1[C@H]2CC[C@@H]1[C@@H](C(=O)O)N(C(=O)N(c1ccc(F)cc1)c1ccc(F)cc1)C2` [Compound C129, (1R,2S,5S)-8-(benzyl(methyl)carbamoyl)-3-(bis(4-fluorophenyl)carbamoyl)-3,8-diazabicyclo [3.2.1]octane-2-carboxylic acid], the IC50 worked out at 148 nM.

As for `O=C(O)[C@@H]1[C@H]2CC[C@@H](CN1C(=O)N(c1ccccc1)c1ccccc1)N2C(=O)N1CCC[C@@H]1c1cc(F)ccc1F` [Compound C141, (1R,2S,5S)-8-((R)-2-(2,5-difluorophenyl)pyrrolidine-1-carbonyl)-3-(diphenylcarbamoyl)-3,8-diazabicyclo [3.2.1]octane-2-carboxylic acid], the IC50 was 7.99 nM.

For the compound `CN(Cc1ccccc1F)C(=O)N1[C@H]2CC[C@@H]1[C@@H](C(=O)O)N(C(=O)N(c1ccccc1)c1ccccc1)C2` [Compound C114, (1R,2S,5S)-3-(diphenylcarbamoyl)-8-((2-fluorobenzyl) (methyl)carbamoyl)-3,8-diazabicyclo [3.2.1]octane-2-carboxylic acid], the IC50 was determined as 26.4 nM.

With `O=C(O)[C@@H]1[C@H]2CC[C@@H](CN1C(=O)N(c1ccccc1)c1ccccc1)N2C(=O)N1CCC[C@@H]1c1ccccc1` [Compound C140, (1R,2S,5S)-3-(diphenylcarbamoyl)-8-((R)-2-phenylpyrrolidine-1-carbonyl)-3,8-diazabicyclo [3.2.1]octane-2-carboxylic acid], the IC50 came out at 5.49 nM. This IC50 is about 4.8-fold lower than that of the compound before.

`CN(Cc1ccsc1)C(=O)N1[C@H]2CC[C@@H]1[C@@H](C(=O)O)N(C(=O)C(c1ccccc1)c1ccccc1)C2` [Compound C187, (1R,2S,5S)-3-(2,2-diphenylacetyl)-8-(methyl(thiophene-3-ylmethyl)carbamoyl)-3,8-diazabicyclo [3.2.1]octane-2-carboxylic acid] gave an IC50 of 3.75 nM.

Take `CN(Cc1ccc(Br)cc1)C(=O)N1[C@H]2CC[C@@H]1[C@@H](C(=O)O)N(C(=O)N(c1ccccc1)c1ccccc1)C2` [Compound C165, (1R,2S,5S)-8-((4-bromobenzyl) (methyl)carbamoyl)-3-(diphenylcarbamoyl)-3,8-diazabicyclo [3.2.1]octane-2-carboxylic acid]: the IC50 worked out at 14 nM.

With `O=C(O)[C@@H]1[C@H]2CC[C@@H](CN1C(=O)N(c1ccccc1)c1ccccc1)N2C(=O)N(Cc1ccsc1)C1CC1` [Compound C196, (1R,2S,5S)-8-(cyclopropyl (thiophene-3-yl-methyl)carbamoyl)-3-(diphenylcarbamoyl)-3,8-diazabicyclo [3.2.1]octane-2-carboxylic acid], the IC50 amounted to 1.63 nM.

As to `CN(Cc1ccccc1)C(=O)N1[C@H]2CC[C@@H]1[C@@H](C(=O)O)N(C(=O)C(C)(c1ccccc1)c1ccccc1)C2` [Compound C173, (1R,2S,5S)-8-(benzyl(methyl)carbamoyl)-3-(2,2-diphenylpropionyl)-3,8-diazabicyclo [3.2.1]octane-2-carboxylic acid], the IC50 is 5.57 nM.

`C=Cc1ccc(CN(C)C(=O)N2[C@H]3CC[C@@H]2[C@@H](C(=O)O)N(C(=O)N(c2ccccc2)c2ccccc2)C3)cc1` [Compound C170, (1R,2S,5S)-3-(diphenylcarbamoyl)-8-(methyl(4-vinylbenzyl)carbamoyl)-3,8-diazabicyclo[3.2.1] octane-2-carboxylic acid] had an IC50 of 3.87 nM.
